Results as given in patent US20240299387A1, “HETEROCYCLIC EGFR INHIBITORS FOR USE IN THE TREATMENT OF CANCER” (Blueprint Medicines Corporation, priority 2021, published 2024).

Legend:
EGFR (L858R T790M C797S) = molecular target: T1, EGFR (L858R T790M C797S) (Homo sapiens, UniProt P00533, C797S/L858R/T790M); experiment: Biochemical EGFR inhibition assay (Caliper mobility shift), EGFR LRTMCS mutant; details: LRTMCS (PH) IC50 (nM) @ 1 mM ATP (Num)
T1 construct: purchased SignalChem E10-122VG
In short: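 Kinase reactions at 25 °C run to 10–20% peptide phosphorylation, stopped with 35 mM EDTA. Phosphorylated product and substrate separated electrophoretically by mobility shift. Apparent IC50 from percent activity versus log compound concentration.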

[1] = molecular target: T2, EGFR L858R T790M in NCI-H1975 cell line (Homo sapiens, UniProt P00533, L858R/T790M); experiment: NCI-H1975 pEGFR AlphaLISA assay; type: cell-based; details: NCI-H1975 cells (EGFR L858R T790M), p-EGFR (Tyr1068), 4-5 hours incubation; read-out: Ext pEGFR H1975 GMean IC50 (nM) Protocol: @Pharmaron AlphaLISA (Num)
T2 construct: host or cells: NCI-H1975
In short: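 Phospho-EGFR measured by AlphaLISA after overnight donor-bead incubation; IC50 from percent pEGFR inhibition versus log concentration.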

T1 sequence (P00533 25-1210 T790M/C797S/L858R): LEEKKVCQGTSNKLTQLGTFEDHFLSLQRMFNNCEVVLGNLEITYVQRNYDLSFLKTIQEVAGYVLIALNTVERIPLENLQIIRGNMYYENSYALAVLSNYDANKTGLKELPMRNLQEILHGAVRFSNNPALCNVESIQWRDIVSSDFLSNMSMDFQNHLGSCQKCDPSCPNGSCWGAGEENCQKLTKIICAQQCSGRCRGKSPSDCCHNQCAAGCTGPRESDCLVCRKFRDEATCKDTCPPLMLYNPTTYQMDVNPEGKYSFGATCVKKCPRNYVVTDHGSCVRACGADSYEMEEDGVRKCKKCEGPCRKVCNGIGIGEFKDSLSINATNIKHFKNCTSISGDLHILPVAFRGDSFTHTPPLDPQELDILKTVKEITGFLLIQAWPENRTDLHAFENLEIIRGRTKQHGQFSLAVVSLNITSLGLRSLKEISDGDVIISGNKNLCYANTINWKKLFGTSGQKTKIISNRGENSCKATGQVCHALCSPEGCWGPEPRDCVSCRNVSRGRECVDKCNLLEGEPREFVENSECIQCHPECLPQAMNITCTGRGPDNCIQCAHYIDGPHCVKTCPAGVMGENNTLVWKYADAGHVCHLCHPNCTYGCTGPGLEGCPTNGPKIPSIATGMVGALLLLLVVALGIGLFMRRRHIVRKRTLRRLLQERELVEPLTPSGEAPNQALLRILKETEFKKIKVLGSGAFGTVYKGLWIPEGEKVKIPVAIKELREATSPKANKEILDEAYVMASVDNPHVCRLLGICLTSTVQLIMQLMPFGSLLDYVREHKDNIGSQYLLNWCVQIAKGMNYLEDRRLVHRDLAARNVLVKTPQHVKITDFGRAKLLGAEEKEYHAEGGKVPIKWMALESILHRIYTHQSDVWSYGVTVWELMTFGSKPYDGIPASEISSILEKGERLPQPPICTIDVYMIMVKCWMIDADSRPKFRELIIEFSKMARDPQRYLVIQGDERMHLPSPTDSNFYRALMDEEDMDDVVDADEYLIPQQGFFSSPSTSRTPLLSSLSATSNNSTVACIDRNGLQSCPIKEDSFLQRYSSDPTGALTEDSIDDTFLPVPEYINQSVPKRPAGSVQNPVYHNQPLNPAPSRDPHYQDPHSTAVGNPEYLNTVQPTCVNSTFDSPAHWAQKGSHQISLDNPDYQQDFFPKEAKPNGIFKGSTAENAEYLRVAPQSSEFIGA
T2 sequence (P00533 25-1210 T790M/L858R): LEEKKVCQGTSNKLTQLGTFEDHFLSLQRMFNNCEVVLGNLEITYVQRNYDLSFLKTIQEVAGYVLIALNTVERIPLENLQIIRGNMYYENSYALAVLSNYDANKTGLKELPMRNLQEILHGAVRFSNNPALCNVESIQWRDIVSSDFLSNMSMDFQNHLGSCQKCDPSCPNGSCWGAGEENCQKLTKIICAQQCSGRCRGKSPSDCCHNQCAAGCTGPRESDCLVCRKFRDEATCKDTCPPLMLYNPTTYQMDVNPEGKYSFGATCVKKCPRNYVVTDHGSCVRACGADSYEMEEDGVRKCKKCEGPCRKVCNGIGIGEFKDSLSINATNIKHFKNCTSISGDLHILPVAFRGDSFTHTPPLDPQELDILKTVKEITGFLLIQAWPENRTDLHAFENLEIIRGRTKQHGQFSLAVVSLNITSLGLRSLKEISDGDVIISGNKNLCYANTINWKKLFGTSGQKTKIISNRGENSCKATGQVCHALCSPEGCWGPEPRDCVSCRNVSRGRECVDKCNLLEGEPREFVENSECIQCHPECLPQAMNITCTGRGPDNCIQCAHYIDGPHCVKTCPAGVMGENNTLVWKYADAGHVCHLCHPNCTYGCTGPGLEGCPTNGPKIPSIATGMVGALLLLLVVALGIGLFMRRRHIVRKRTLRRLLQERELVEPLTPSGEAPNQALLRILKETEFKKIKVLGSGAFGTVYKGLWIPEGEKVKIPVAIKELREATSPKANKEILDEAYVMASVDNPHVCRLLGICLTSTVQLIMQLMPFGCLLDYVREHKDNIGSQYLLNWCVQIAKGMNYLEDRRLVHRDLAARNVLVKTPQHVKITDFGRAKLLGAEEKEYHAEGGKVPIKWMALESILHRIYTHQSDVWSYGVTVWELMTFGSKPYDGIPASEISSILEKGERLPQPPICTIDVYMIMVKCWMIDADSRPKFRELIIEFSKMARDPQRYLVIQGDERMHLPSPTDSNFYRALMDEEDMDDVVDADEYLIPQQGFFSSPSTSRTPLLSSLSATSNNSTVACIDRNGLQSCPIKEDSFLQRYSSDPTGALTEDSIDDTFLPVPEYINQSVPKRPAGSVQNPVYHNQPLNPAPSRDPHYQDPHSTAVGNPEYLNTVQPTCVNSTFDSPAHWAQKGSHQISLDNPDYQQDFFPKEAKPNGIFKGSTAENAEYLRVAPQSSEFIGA

| Structure (SMILES) | IC50 (EGFR (L858R T790M C797S)) | IC50 [1] |
| --- | --- | --- |
| CC(C)c1cnc(C(=O)NCCF)c2cnc(Nc3ccnc(N4CC[C@@H](O)[C@@](C)(F)C4)n3)cc12 [Example 62, 6-((2-((3S,4R)-3-fluoro-4-hydroxy-3-methylpiperidin-1-yl)pyrimidin-4-yl)amino)-N-(2-fluoroethyl)-4-isopropyl-2,7-naphthyridine-1-carboxamide] | < 15 nM | > 50 nM |
| CNC(=O)c1ncc(C(C)C)c2cc(Nc3ccnc(N4CC[C@@H](O)[C@@](C)(F)C4)n3)ncc12 [Example 64, 6-((2-((3S,4R)-3-fluoro-4-hydroxy-3-methylpiperidin-1-yl)pyrimidin-4-yl)amino)-4-isopropyl-N-methyl-2,7-naphthyridine-1-carboxamide] | 15 to 20 nM | > 50 nM |
| CCNC(=O)c1ncc(C(C)C)c2cc(Nc3ccnc(N4CC[C@@H](O)[C@@](C)(F)C4)n3)ncc12 [Example 65, N-ethyl-6-((2-((3S,4R)-3-fluoro-4-hydroxy-3-methylpiperidin-1-yl)pyrimidin-4-yl)amino)-4-isopropyl-2,7-naphthyridine-1-carboxamide] | 15 to 20 nM | > 50 nM |
| COCCNC(=O)c1ncc(C(C)C)c2cc(Nc3ccnc(N4CC[C@@H](O)[C@@](C)(F)C4)n3)ncc12 [Example 66, 6-((2-((3S,4R)-3-fluoro-4-hydroxy-3-methylpiperidin-1-yl)pyrimidin-4-yl)amino)-4-isopropyl-N-(2-methoxyethyl)-2,7-naphthyridine-1-carboxamide] | 20 to 30 nM | > 50 nM |
| CC(C)c1cnc(C(=O)NCC(F)F)c2cnc(Nc3ccnc(N4CC[C@@H](O)[C@@](C)(F)C4)n3)cc12 [Example 67, N-(2,2-difluoroethyl)-6-((2-((3S,4R)-3-fluoro-4-hydroxy-3-methylpiperidin-1-yl)pyrimidin-4-yl)amino)-4-isopropyl-2,7-naphthyridine-1-carboxamide] | < 15 nM | > 50 nM |
| CC(C)c1cnc(C(=O)NC2CC2)c2cnc(Nc3ccnc(N4CC[C@@H](O)[C@@](C)(F)C4)n3)cc12 [Example 68, N-cyclopropyl-6-((2-((3S,4R)-3-fluoro-4-hydroxy-3-methylpiperidin-1-yl)pyrimidin-4-yl)amino)-4-isopropyl-2,7-naphthyridine-1-carboxamide] | 15 to 20 nM | > 50 nM |
| CC(C)NC(=O)c1ncc(C(C)C)c2cc(Nc3ccnc(N4CC[C@@H](O)[C@@](C)(F)C4)n3)ncc12 [Example 69, 6-((2-((3S,4R)-3-fluoro-4-hydroxy-3-methylpiperidin-1-yl)pyrimidin-4-yl)amino)-N,4-diisopropyl-2,7-naphthyridine-1-carboxamide] | 20 to 30 nM | > 50 nM |
| CC(C)c1cnc(C(=O)NCC(C)(C)O)c2cnc(Nc3ccnc(N4CC[C@@H](O)[C@@](C)(F)C4)n3)cc12 [Example 70, 6-((2-((3S,4R)-3-fluoro-4-hydroxy-3-methylpiperidin-1-yl)pyrimidin-4-yl)amino)-N-(2-hydroxy-2-methylpropyl)-4-isopropyl-2,7-naphthyridine-1-carboxamide] | 30 to 100 nM | > 50 nM |
| CC(C)c1cnc(C(=O)N[C@H](C)CF)c2cnc(Nc3ccnc(N4CC[C@@H](O)[C@@](C)(F)C4)n3)cc12 [Example 71, 6-((2-((3S,4R)-3-fluoro-4-hydroxy-3-methylpiperidin-1-yl)pyrimidin-4-yl)amino)-N-((R)-1-fluoropropan-2-yl)-4-isopropyl-2,7-naphthyridine-1-carboxamide] | 20 to 30 nM | > 50 nM |
| CC(C)c1cnc(C(=O)N[C@@H](C)CF)c2cnc(Nc3ccnc(N4CC[C@@H](O)[C@@](C)(F)C4)n3)cc12 [Example 72, 6-((2-((3S,4R)-3-fluoro-4-hydroxy-3-methylpiperidin-1-yl)pyrimidin-4-yl)amino)-N-((S)-1-fluoropropan-2-yl)-4-isopropyl-2,7-naphthyridine-1-carboxamide] | 15 to 20 nM | > 50 nM |
